Assay results: ChEMBL document CHEMBL1123072, “1,3-Dialkyl-8-(p-sulfophenyl)xanthines: potent water-soluble antagonists for A1- and A2-adenosine receptors” (J Med Chem, 1985)
pEC50, pKi: −log10 of the molar value. In brackets after ≈: the same amount, converted by molar mass.

Key:
[1] = Solubility in water; format: physicochemical; settings: read-out: S
Adenosine receptor A2a [2] = target: T1, Adenosine receptor A2a (Cavia porcellus, UniProt P46616)
Description: Antagonism of cyclic [3H]AMP accumulation in guinea pig cerebral cortical slices (elicited by 15 uM 2-chloroadenosine at adenosine A2 receptor)

Adenosine receptor A1 = target: T2, Adenosine receptor A1 (Rattus norvegicus, UniProt P25099); assay: Antagonism of binding of 1 nM [3H]cyclohexyladenosine to adenosine A1 receptors on rat cortical membranes; format: cell membranes, Membrane
T2 sequence (P25099 whole entry): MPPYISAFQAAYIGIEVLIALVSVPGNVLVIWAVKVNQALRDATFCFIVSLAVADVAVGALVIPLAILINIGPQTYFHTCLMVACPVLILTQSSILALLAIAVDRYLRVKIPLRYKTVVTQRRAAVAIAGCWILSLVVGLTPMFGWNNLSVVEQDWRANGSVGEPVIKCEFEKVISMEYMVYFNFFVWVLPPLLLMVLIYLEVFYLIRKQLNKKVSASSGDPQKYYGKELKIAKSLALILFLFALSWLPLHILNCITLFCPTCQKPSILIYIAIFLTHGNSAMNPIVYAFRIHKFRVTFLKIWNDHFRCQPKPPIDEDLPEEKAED

Adenosine receptor A2a [3] = target: T1, Adenosine receptor A2a; assay: Antagonism of cyclic [3H]AMP accumulation elicited by 15 uM 2-chloroadenosine in [3H]adenine-labeled guinea pig cerebral cortical slices at A2 receptor; format: functional

T1 sequence (P46616 whole entry): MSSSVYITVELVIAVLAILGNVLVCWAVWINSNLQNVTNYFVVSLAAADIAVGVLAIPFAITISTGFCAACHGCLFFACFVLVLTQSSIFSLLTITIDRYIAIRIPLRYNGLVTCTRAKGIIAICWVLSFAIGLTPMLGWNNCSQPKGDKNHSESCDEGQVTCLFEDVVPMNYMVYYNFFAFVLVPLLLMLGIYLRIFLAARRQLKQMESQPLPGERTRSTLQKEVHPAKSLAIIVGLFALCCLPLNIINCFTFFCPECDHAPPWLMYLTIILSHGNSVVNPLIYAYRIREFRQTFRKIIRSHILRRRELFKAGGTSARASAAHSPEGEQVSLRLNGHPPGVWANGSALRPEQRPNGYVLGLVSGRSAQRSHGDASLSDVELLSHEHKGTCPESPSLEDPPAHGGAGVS

| SMILES | solubility [1] [µM] | pKi (Adenosine receptor A2a [2]) | pKi (Adenosine receptor A1) | pEC50 (Adenosine receptor A2a [3]) |
| --- | --- | --- | --- | --- |
| CCCn1c(=O)c2nc(-c3ccc(C(=O)O)cc3)[nH]c2n(CCC)c1=O |  |  | 6.77 |  |
| CCCn1c(=O)c2nc[nH]c2n(CCC)c1=O |  |  | 6.15 |  |
| Nc1nc(Cl)nc2c1ncn2[C@@H]1O[C@H](CO)[C@@H](O)[C@H]1O |  |  |  | 5.10 |
| Cn1c(=O)c2[nH]c(-c3cccc(C(=O)O)c3)nc2n(C)c1=O |  | 4.82 | 4.49 |  |
| Cn1c(=O)c2c(nc(-c3ccccc3)n2C)n(C)c1=O |  | 4.57 | 4.77 |  |
| Cc1nc2c(=O)n(C)c(=O)n(C)c2[nH]1 |  | 4.85 | 5.19 |  |
| CC(C)CCn1c(=O)c2nc(-c3ccccc3)[nH]c2n(CC(C)C)c1=O | 10 (≈ 3.54 µg/mL) | < 5.00 | 5.74 |  |
| Cn1c(=O)c2nc(-c3ccccc3C(=O)O)[nH]c2n(C)c1=O |  | < 4.52 | < 4.30 |  |
| CC(C)CCn1c(=O)c2[nH]cnc2n(CC(C)C)c1=O |  | < 3.82 | 4.89 |  |

More lines, in order of rising pKi (Adenosine receptor A2a [2]), values ahead:

| solubility [1] [µM] | pKi (Adenosine receptor A2a [2]) | pKi (Adenosine receptor A1) | pEC50 (Adenosine receptor A2a [3]) | SMILES |
| --- | --- | --- | --- | --- |
|  | 5.15 | 5.46 |  | CC(C)CCn1c(=O)c2[nH]c(-c3ccc(S(=O)(=O)O)cc3)nc2n(CC(C)C)c1=O |
| > 20000 | 5.20 |  |  | Cn1c(=O)c2[nH]c(-c3ccc(S(=O)(=O)O)cc3)nc2n(C)c1=O |
| 90 (≈ 27 µg/mL) | 5.60 |  |  | Cn1c(=O)c2[nH]c(-c3ccc(C(=O)O)cc3)nc2n(C)c1=O |
|  | 5.77 | 6.12 |  | Cn1c(=O)c2[nH]c(-c3ccccc3O)nc2n(C)c1=O |
|  | 5.77 | 6.07 |  | Cn1c(=O)c2nc(-c3ccccc3N)[nH]c2n(C)c1=O |
|  | 6.00 | 6.47 |  | Cn1c(=O)c2[nH]c(-c3cccc(O)c3)nc2n(C)c1=O |
|  | 6.00 | 8.60 |  | CCCn1c(=O)c2[nH]c(-c3ccc(Cl)cc3N)nc2n(CCC)c1=O |
|  | 6.05 | 5.96 |  | Cn1c(=O)c2[nH]c(-c3cccc(N)c3)nc2n(C)c1=O |
|  | 6.15 | 6.68 |  | CCCn1c(=O)c2[nH]c(-c3ccc(S(=O)(=O)O)cc3)nc2n(CCC)c1=O |
|  | 6.26 |  |  | Cn1c(=O)c2[nH]c(-c3ccccc3)nc2n(C)c1=O [8-PHENYL THEOPHYLLINE] |
| 5 (≈ 1.36 µg/mL) | 6.89 | 7.30 |  | Cn1c(=O)c2nc(-c3ccc(O)cc3)[nH]c2n(C)c1=O |
|  | 6.89 | 6.64 |  | Cn1c(=O)c2[nH]c(-c3ccc(N)cc3)nc2n(C)c1=O |
|  | 7.30 | 8.54 |  | CCCn1c(=O)c2nc(-c3ccc(O)cc3)[nH]c2n(CCC)c1=O |
